Marks after values point to notes of the source that are not given here.
Columns and labels:
human skin [1] = assay: Diclofenac permeation through human skin in Franz diffusion cells with co-applied enhancer; format: in vitro ADME; details: for CDERMIS, diclofenac concentration in dermis / CEPIDERMIS, diclofenac concentration in epidermis: 1% enhancer co-applied with 3% DC in 60% PG, after 48 h permeation, mean ± SEM
Method: Donor samples for reversibility and infrared studies contained 1% enhancer in 60% PG. All samples were thoroughly mixed, incubated at 32 °C for 24 h, and, if needed, carefully resuspended before applying on the skin. The effects of the studied enhancers on the solubility of model drugs were assessed as described previously.
The permeation-enhancing potencies of the prepared compounds were evaluated on human skin in Franz diffusion cells. Human skin was slowly thawed, cut into 2 × 2 cm pieces, fixed in Teflon holders with 1-cm^2 circular permeation areas, and mounted into Franz cells epidermal side up. The acceptor compartment (15.9 ± 0.1 ml) was filled with phosphate-buffered saline at pH 7.4 with 0.005% gentamicin (PBS) and stirred at 32 °C throughout the experiment. The skin integrity was checked by electrical impedance (any skin sample with the impedance < 10 kΩ was excluded). Then, 100 µl of a donor sample (infinite dose) was applied to the skin and covered with a glass slide. Acceptor phase samples (300 µl) were collected at predetermined time intervals for 48 h, to reach steady-state and were replaced by the same volume of fresh PBS. […] The drug concentrations were measured by HPLC (see supplementary data).
The flux of the model drug through the skin Jss (µg/cm^2/h) was calculated from the linear region of this plot. The enhancement ratio (ER) was calculated as the ratio of flux with and without an enhancer.
After the permeation experiment, the cells were dismounted, the skin was carefully washed with PBS, and the permeation area of the skin (1 cm^2) was punched off. After heating the skin fragments to 80 °C for 1 min, the epidermis (E) was peeled off the dermis (D), individually weighed and extracted by 1 and 2 ml, respectively, of an extraction solvent (identical to the mobile phase for the drug HPLC analysis, see supplementary data) for 24 h. The drug concentration was measured by HPLC (see supplementary data).

human skin [2] = assay: Electrical impedance of human skin in vitro, reversibility; details: for impedance 1 h after the sample had been removed / impedance 4 h after the sample had been removed / impedance 8 h after the sample had been removed / impedance 12 h after the sample had been removed / impedance 24 h after the sample had been removed: 24-h application of 1% enhancer (1% Azone, 5% SDS) in 60% PG; for impedance 1 h after the sample had been removed / impedance 4 h after the sample had been removed / impedance 8 h after the sample had been removed / impedance 12 h after the sample had been removed / impedance 24 h after the sample had been removed / impedance before sample application (baseline): mean ± SEM; for fold decrease of skin impedance compared to baseline (range over enhancers and control): 24 h treatment, baseline 25–29 kΩ × cm^2; for recovery of skin impedance after sample removal: after 24-h application, followed 24 h after removal
Text: We further investigated the direct effects of the selected enhancers on the skin barrier assessed by TEWL and the electrical impedance of human skin in vitro. TEWL is a method commonly used in dermatology[38] to study, for example, the irritant potential of chemicals, skin barrier recovery, or effect of topical formulations, and permeation enhancers[17],[21],[41]–[44]. Electrical impedance measures the opposition of the skin to alternating electrical current and is inversely proportional to the flux of ions. Thus, increased TEWL or decreased impedance indicates a barrier impairment[45],[46]. Electrical impedance or conductance measurements have been used to screen new enhancers or assess the irritation potential of compounds[13],[15],[17],[21],[32],[44],[47]–[50]. Both TEWL and impedance can distinguish between reversible and irreversible effects of enhancers on skin permeability[17],[21],[40],[44],[51].
Human skin was mounted in Franz diffusion cells in the same way as for the permeation studies. After 1-h equilibration, basal TEWL and impedance values were recorded. Then, 1% enhancer in 60% PG, 60% PG as a negative control, 1% Azone in 60% PG, or 5% SDS in 60% PG as positive (irreversible) controls was applied on the skin (100 µl/cm^2) for 24 h. The residual sample was washed with PBS and gently blotted dry. At 1, 4, 8, 12, and 24 h after sample removal, TEWL, and impedance values were recorded. TEWL was measured using AquaFlux AF 200 (Biox Systems Ltd, London, UK), employing the condenser-chamber measurement method at 26 ± 1.0 °C and 43 ± 3% relative air humidity. Electrical impedance was measured by LCR meter 4080 (Conrad electronic, Hirschau, Germany, measuring range 20 Ω–10 MΩ, error at kΩ values < 0.5%) operated in parallel mode with an alternating frequency of 120 Hz, which was also used in our previous work[21],[44].
Samples were removed from the skin after 24 h, and TEWL and impedance values were recorded in predetermined time intervals (1, 4, 8, 12, and 24 h after sample removal). Data are presented as the means ± SEM; n ≥ 3. * statistically significant difference compared to the baseline value before the sample application at p < 0.05. ^+ statistically significant compared to the value 1 h after the sample removal at p < 0.05.^ ≠ statistically significant compared to the control (60% PG without enhancer) at the same time point, at p < 0.05.

[3] = 1% enhancer with 3% DC in 60% PG

SMILES | CDERMIS, diclofenac concentration in dermis (human skin [1]) | CEPIDERMIS, diclofenac concentration in epidermis (human skin [1]) | impedance 1 h after the sample had been removed (human skin [2]) | impedance 4 h after the sample had been removed (human skin [2]) | impedance 8 h after the sample had been removed (human skin [2]) | impedance 12 h after the sample had been removed (human skin [2]) | impedance 24 h after the sample had been removed (human skin [2]) | fold decrease of skin impedance compared to baseline (range over enhancers and control) (human skin [2]) | recovery of skin impedance after sample removal (human skin [2]) | impedance before sample application (baseline) (human skin [2]) | fold increase of DC retention in dermis over control (human skin [1]; [3]) | fold increase of DC retention in epidermis over control (human skin [1]; [3])
CCCCCCCCCCCCOC(=O)C1CCCN1C(C)=O (centres unmarked) [Pro2, N-acetyl proline dodecyl ester] | 1.08 ± 0.09 µg/mg | 7.16 ± 0.79 µg/mg | 2.8 ± 0.1* kΩ×cm^2 | 6.0 ± 1.1*^≠ kΩ×cm^2 | 8.1 ± 1.7*^≠ kΩ×cm^2 | 8.6 ± 2.0*^≠ kΩ×cm^2 | 9.4 ± 2.6*^≠+ kΩ×cm^2 | 5–21 times | recovered incompletely | 25.2 ± 2.1 kΩ×cm^2 | – | –
CCCCCCCCCCCCOC(=O)C1CCCN1C(=O)CC (centres unmarked) [Pro3] | 1.54 ± 0.28 µg/mg | 11.18 ± 2.39 µg/mg | 1.4 ± 0.8* kΩ×cm^2 | 7.9 ± 0.4*^≠+ kΩ×cm^2 | 13.1 ± 0.7*^≠+ kΩ×cm^2 | 15.8 ± 1.0*^≠+ kΩ×cm^2 | 18.6 ± 0.9*^≠+ kΩ×cm^2 | 5–21 times | recovered incompletely | 28.9 ± 1.7 kΩ×cm^2 | – | –
CCCCCCCCCCCCOC(=O)C1CCCN1C(=O)CCC (centres unmarked) [Pro4] | 1.71 ± 0.31 µg/mg | 12.70 ± 2.71 µg/mg | 3.8 ± 0.8* kΩ×cm^2 | 11.5 ± 1.7*^+ kΩ×cm^2 | 18.3 ± 2.5*^+ kΩ×cm^2 | 21.2 ± 2.5*^+ kΩ×cm^2 | 23.8 ± 2.9^+ kΩ×cm^2 | 5–21 times | recovered to values similar to baseline within 24 h | 28.9 ± 2.6 kΩ×cm^2 | fourfold | 3 fold

Reference: article PMC9663686, “Proline, hydroxyproline, and pyrrolidone carboxylic acid derivatives as highly efficient but reversible transdermal permeation enhancers” (Scientific Reports, 2022)
